# Experimental data as given in US4897403A, “Antimalarial compositions and methods” (The United States of America as represented by the …, priority 1986, dated 1990).
# Where two headings read alike, the source gives them in different places.
# Experiments:
# [1] = system: Isolates of P. falciparum from Thailand; conditions: cited from earlier work
# malarial parasites = test: Antimalarial properties of verapamil in vitro; format: cell-based, P. falciparum
# Procedure: (§1) Throughout the examples, incorporation of radiolabelled hypoxanthine was used to measure a synchronous growth of the malarial parasites and inhibition of incorporation was the measured parameter of the parasites' rsponse to the drugs. Semi-automated microdilution techniques as disclosed by R. E. Desjardins et al, Antimicrob.
# (§2) First, the antimalarial properties of verapamil (a calcium channel blocker "reversing compound") in vitro were studied. […] The drug combinations were dosed in fixed ratios of their 50% inhibitory concentrations.
# [2] = system: malarial parasite growth or hypoxanthine uptake; test: Effect of verapamil alone on malarial parasite growth or hypoxanthine uptake in vitro; format: cell-based, P. falciparum; conditions: 1×10^-6 M and 2×10^-6 M
# Source text: as §1
# [3] = system: chloroquine-resistant clone from Brazil (IEC 306); test: microbe, parasite or virus in culture; format: cell-based, P. falciparum; conditions: Plasmodium falciparum
# Procedure: as §1, §2
# (§3) The IC50 's of each drug in combination set forth in Table 1 were then calculated as a fraction of the control IC50 and plotted as a fraction of one unit of IC50 in FIG. 1. […] The line connecting each unit of IC50 for each clone represents the additivity of drug effects.
# [4] = system: chloroquine-resistant clone from Indochina (W-2); test: microbe, parasite or virus in culture; format: cell-based, P. falciparum; conditions: for IC50: Plasmodium falciparum
# Source text: as §1
# [5] = system: chloroquine-resistant clone from Indochina (W-2); test: microbe, parasite or virus in culture; conditions: Plasmodium falciparum
# Procedure: as §1, §2, §3
# [6] = system: chloroquine-sensitive West African clone (D-6); test: Effect of verapamil on chloroquine sensitivity, Example 2, clone D-6; format: cell-based, P. falciparum; conditions: Plasmodium falciparum, clone D-6, CQ sensitive, IC50 + 1SD
# Source text: as §1
# [7] = system: chloroquine-sensitive West African clone (D-6); test: In vitro susceptibility (radiolabelled hypoxanthine incorporation, semi-automated microdilution), Example 1, clone D-6; format: cell-based, P. falciparum; conditions: Plasmodium falciparum
# Procedure: as §1, §2
compound,measurement,setting,value
C=C[C@H]1C[N@@]2CC[C@H]1C[C@H]2[C@H](O)c1ccnc2ccc(OC)cc12 [quinine],resistance of isolates in vitro,[1],resistant
COc1ccc(CCN(C)CCCC(C#N)(c2ccc(OC)c(OC)c2)C(C)C)cc1OC (stereo not shown) [verapamil],IC50,"malarial parasites; Plasmodium falciparum, read-out: inhibitory concentration (IC50)",6 to 8 µg/mL
same,fold less potent than chloroquine or mefloquine,"malarial parasites; verapamil vs chloroquine or mefloquine, in vitro","1,000 fold"
same,effect on malarial parasite growth or hypoxanthine uptake in vitro,[2],no significant effects
CCN(CC)CCCC(C)Nc1ccnc2cc(Cl)ccc12 (stereo not shown) [chloroquine],IC50,"[3]; read-out: IC50 of chloroquine in drug combination, CQ 25 nM/VER 75 μM fixed ratio, clone IEC-306",2.8 nM
same,IC50,"[3]; read-out: IC50 of chloroquine in drug combination, CQ 50 nM/VER 50 μM fixed ratio, clone IEC-306",6.3 nM
same,IC50,"[3]; read-out: IC50 of chloroquine in drug combination, CQ 75 nM/VER 25 μM fixed ratio, clone IEC-306",11.7 nM
same,IC50,"[3]; read-out: fifty percent inhibitory concentration (IC50), single drug chloroquine, chloroquine alone, clone IEC-306",52.3 nM
same,IC50,[4]; read-out: IC50 of chloroquine + 1 × 10^-6 M VER,8.4 ± 0.4 nM
same,IC50,[4]; read-out: IC50 of chloroquine + 2 × 10^-6 M VER,5.6 ± 0.3 nM
same,sensitivity of chloroquine-resistant clone to chloroquine in presence of verapamil (FIGS. 2 and 3),"[4]; constant concentration of verapamil, compared with chloroquine-sensitive West African clone",as sensitive to the chloroquine treatment as the chloroquine-sensitive West African clone
same,IC50,"[5]; read-out: IC50 of chloroquine in drug combination, CQ 25 nM/VER 75 μM fixed ratio, clone W-2",1.5 nM
same,IC50,"[5]; read-out: IC50 of chloroquine in drug combination, CQ 50 nM/VER 50 μM fixed ratio, clone W-2",1.3 nM
same,IC50,"[5]; read-out: IC50 of chloroquine in drug combination, CQ 75 nM/VER 25 μM fixed ratio, clone W-2",3.8 nM
same,IC50,"[6]; read-out: IC50 of chloroquine + 1 × 10^-6 M VER, with 1 × 10^-6 M verapamil",7.8 ± 0.6 nM
same,IC50,"[6]; read-out: IC50 of chloroquine + 2 × 10^-6 M VER, with 2 × 10^-6 M verapamil",8.8 ± 0.3 nM
same,IC50,"[7]; read-out: IC50 of chloroquine in drug combination, CQ 25 nM/VER 75 μM fixed ratio, clone D-6",4.4 nM
same,IC50,"[7]; read-out: IC50 of chloroquine in drug combination, CQ 50 nM/VER 50 μM fixed ratio, clone D-6",8 nM
same,IC50,"[7]; read-out: IC50 of chloroquine in drug combination, CQ 75 nM/VER 25 μM fixed ratio, clone D-6",11.4 nM
same,IC50,"[7]; read-out: fifty percent inhibitory concentration (IC50), single drug chloroquine, chloroquine alone, clone D-6",14.1 nM
same,resistance of isolates in vitro,[1],resistant
OC(c1cc(C(F)(F)F)nc2c(C(F)(F)F)cccc12)C1CCCCN1 (stereo not shown) [mefloquine],resistance of isolates in vitro,[1],resistant
